Measurements as given in publication PMC11091889, “Silver Organometallics that are Highly Potent Thioredoxin and Glutathione Reductase Inhibitors: Exploring the Correlations of Solution Chemistry with the Strong Antibacterial Effects” (ACS Infectious Diseases, 2024).
Read-outs that look alike come from different tables or passages of the source.

What was measured:
[1] = Conductometry: molar conductivity of silver complexes in DMSO; format: physicochemical; details: 1.0 mM in DMSO, calculated as monocarbene (NHC)AgX
Protocol: Since both the neutral monocarbene and the ionic biscarbene form of the complexes may exist in various proportions in the solution, conductometry studies were performed to reveal the dominant structure. The molar conductivity of 1.0 mM solutions of each complex in DMSO was determined after different periods up to 24 h using AgNO3 as 1:1 electrolyte reference (see Table 1). According to the literature, the expected range of molar conductivity for 1:1 electrolytes in DMSO is 35–90 S cm^2 mol^–1.[45],[46]
Conductivity measurements were performed using an Apera Instruments EC9500 conductivity meter. Solutions (as indicated, otherwise 1.0 mM) of all compounds were prepared using freshly distilled DMSO with a specific electrical conductivity of ≤3 × 10^–8 S cm^–1. The conductivities were measured at 25 ± 2 °C immediately after complete dissolution and after 24 h.

[2] = test system: E. coli (DSM1116, ATCC 9637); assay: microbe, parasite or virus in culture; format: cell-based, Escherichia coli; details: n = 3, MHB; for MIC E. coli / MIC E. coli (value in brackets) / MIC: 22 h
Protocol: (§1) The antibacterial effect of the silver NHC complexes and selected ligands was evaluated in two Gram-positive [Enterococcus faecium, methicillin resistant S. aureus, (MRSA)] and in four Gram-negative (Acinetobacter baumannii, Escherichia coli, Klebsiella pneumoniae, and Pseudomonas aeruginosa) pathogenic bacterial strains using broth microdilution assays. The resulting minimal inhibitory concentrations (MICs, Table 2) and EC50 (Table S6) were determined by a curve fitting procedure. Silver nitrate (AgNO3), SSD, and various antibiotics were used as references.
(§2) The following strains of ESKAPE panel were utilized and maintained at 37 °C in MHB (21 g/L Müller Hinton broth, pH 7.4) or TSY (30 g/L trypticase soy broth, 3 g/L yeast extract, pH 7.0–7.2) media: A. baumannii (DSM 30007, ATCC 19606), E. coli (DSM1116, ATCC 9637), K. pneumoniae (DSM 11678, ATCC33495), P. aeruginosa PA7 (DSM 24068) in MHB; E. faecium (DSM 20477, ATCC 19434), and S. aureus MRSA (DSM 11822, ICB 25701) in TSY. MIC values were determined following a standardized protocol in broth microdilution assays. The compounds and reference substances (AgNO3 and SSD) were serially diluted from 64 to 1 μg/mL. Starting inocula of 2–8 × 10^5 CFU/mL in MHB or TSY media at 37 °C were used, and serial dilutions were carried out in 96-well microtiter plates in duplicate. After incubation of the plates for 22 h at 37 °C, the absorbance at 600 nm was measured using The Spark multimode microplate reader (Tecan Trading AG). The MIC values for the tested compounds were determined in three independent experiments and presented in μM with standard errors and also in μg/mL. Amikacin (P. aeruginosa), linezolid (S. aureus), and ciprofloxacin (all other strains) served as positive controls. The MIC and EC50 values were determined by curve fitting with Sigma Plot. To determine the effect of the culture medium on the activity of silver compounds, the assay was performed using MHB, TSY, or DMEM (Gibco). To observe the effect of individual components of TSY medium, antibacterial tests were performed using MHB with addition of tryptone (17 g/L) or yeast extract (3 g/L, both were purchased from Sigma).

[3] = test system: P. aeruginosa PA7 (DSM 24068); assay: microbe, parasite or virus in culture; format: cell-based, Pseudomonas aeruginosa
Protocol: as §1, §2

[4] = test system: K. pneumoniae (DSM 11678, ATCC33495); assay: Broth microdilution antibacterial assay; format: cell-based, Klebsiella pneumoniae
Protocol: as §1, §2

[5] = test system: A. baumannii (DSM 30007, ATCC 19606); assay: Broth microdilution antibacterial assay; format: cell-based, Acinetobacter baumannii
Protocol: as §1, §2

[6] = test system: S. aureus MRSA (DSM 11822, ICB 25701); assay: microbe, parasite or virus in culture; format: cell-based, methicillin resistant S. aureus
Protocol: as §1
The importance of the culture medium used in antibacterial assays has been pointed out for antibiotics and in particular for silver.[53]−[55] In our recent studies, tryptic soy yeast (TSY) broth has been used for growing Gram-positive bacteria. Two components thereof, tryptone and yeast extract, have been reported to affect the antibacterial activity of silver nitrate.[55] Moreover, such an effect was also observed for other media containing at least one of those components.[11],[53] […] Silver nitrate served as a reference, and three different growth media were studied, namely, Müller-Hinton Broth (MHB, commonly used for Gram-negative bacteria), TSY broth (commonly used for Gram-positive bacteria), and DMEM supplemented with 10% FCS (commonly used for growth of mammalian and human cells).
as §2

[7] = test system: E. faecium (DSM 20477, ATCC 19434); assay: Broth microdilution antibacterial assay; format: cell-based, Enterococcus faecium
Protocol: as §1, §2

[8] = mean ± standard error, n = 3, MHB, 22 h
[9] = mean ± standard error, n = 3, MHB; read-out: EC50 P. aeruginosa
[10] = mean ± standard error, n = 3, MHB; read-out: EC50 K. pneumoniae
[11] = mean ± standard error, n = 3, MHB; read-out: EC50 A. baumannii
[12] = mean ± standard error, n = 3, TSY, 22 h
[13] = mean ± standard error, n = 3, TSY; read-out: EC50 MRSA
[14] = mean ± standard error, n = 3, TSY; read-out: EC50 E. faecium

SMILES	Molar conductivity ΛM ([1]; 1 h after dissolution) [S cm^2 mol^–^1]	Molar conductivity ΛM ([1]; 24 h after dissolution) [S cm^2 mol^–^1]	EC50 ([2]; mean ± standard error) [µM]	MIC E. coli ([2]; mean ± standard error) [µM]	MIC E. coli (value in brackets) [2] [µg/mL]	MIC P. aeruginosa [3, 8] [µM]	EC50 [3, 9] [µM]	MIC P. aeruginosa (value in brackets) ([3]; n = 3, MHB, 22 h) [µg/mL]	MIC K. pneumoniae [4, 8] [µM]	EC50 [4, 10] [µM]	MIC K. pneumoniae (value in brackets) ([4]; n = 3, MHB, 22 h) [µg/mL]	MIC A. baumannii [5, 8] [µM]	EC50 [5, 11] [µM]	MIC A. baumannii (value in brackets) ([5]; n = 3, MHB, 22 h) [µg/mL]	MIC MRSA [6, 12] [µM]	EC50 [6, 13] [µM]	MIC MRSA (value in brackets) ([6]; n = 3, TSY, 22 h) [µg/mL]	MIC E. faecium [7, 12] [µM]	EC50 [7, 14] [µM]	MIC E. faecium (value in brackets) ([7]; n = 3, TSY, 22 h) [µg/mL]	other results
[Cl][Ag][c]1n(Cc2ccccc2)c2ccccc2[n+]1Cc1ccccn1 [5a]	4.24	3.70	35.1 ± 1.1	60.2 ± 12.0	27	30.1 ± 6.0	16 ± 1.7	13	18.1 ± 0.0	8.5 ± 1	8	9.0 ± 0.0	1.7	4	145 ± 0.0	82.9 ± 1.5	64	145 ± 0.0	119 ± 3.6	64	–
[Cl][Ag][c]1n(Cc2ccccn2)c2ccccc2[n+]1Cc1ccccn1 [6a]	3.75	4.15	38.1 ± 6.9	48.1 ± 12.0	21	60.1 ± 12.0	33.6 ± 5.8	27	9.02 ± 0.0	5.9 ± 0.2	4	9.0 ± 0.0	1.6 ± 0.1	4	144 ± 0.0	91.3 ± 0.6	64	144 ± 0.0	133 ± 0.6	64	–
CC(C)[n+]1cn(Cc2ccccn2)c2ccccc21.[Br-] [L3b, 1-Isopropyl-3-(pyridin-2-ylmethyl)-benzimidazolium Bromide]	–	–	> 250	–	–	> 250	–	–	> 250	–	–	> 250	–	–	> 250	–	–	–	–	–	MIC ([2]; Escherichia coli, read-out: MIC E. coli (value in brackets)): > 128 µg/mL; MIC ([2]; mean ± standard error, read-out: MIC E. coli): > 250 µM; MIC ([3]; Pseudomonas aeruginosa, DSM24068, 22 h, read-out: MIC P. aeruginosa (value in brackets), n = 3, MHB, 22 h): > 128 µg/mL; EC50 ([3]; read-out: EC50 P. aeruginosa; mean ± standard error, n = 3, MHB): > 250 µM; MIC ([4]; Klebsiella pneumoniae, 22 h, read-out: MIC K. pneumoniae (value in brackets)): > 128 µg/mL; EC50 ([4]; read-out: EC50 K. pneumoniae; mean ± standard error, n = 3, MHB): > 250 µM; MIC ([5]; Acinetobacter baumannii, 22 h, read-out: MIC A. baumannii (value in brackets)): ≥ 128 µg/mL; EC50 ([5]; read-out: EC50 A. baumannii; mean ± standard error, n = 3, MHB): > 250 µM; MIC ([6]; Staphylococcus aureus, 22 h, read-out: MIC MRSA (value in brackets)): > 128 µg/mL; EC50 ([6]; read-out: EC50 MRSA; mean ± standard error, n = 3, TSY): > 250 µM; MIC ([7]; Enterococcus faecium, 22 h, read-out: MIC E. faecium, mean ± standard error, n = 3, TSY, 22 h): ≥ 250 µM; EC50 ([7]; read-out: EC50 E. faecium; mean ± standard error, n = 3, TSY): ≥ 250 µM
